Results from patent publication US6384045B1, “Tricyclic and tetracyclic pyrones” (Kansas State University Research Foundation, priority 1997, dated 2002).
“Also recorded” adds a separate entry of the source.

Key:
[1] = test system: MCF-7 human breast cancer cells; assay: Growth of MCF-7 human breast cancer cells; format: cell-based
[2] = test system: EMT6 mammary carcinoma cells; assay: Growth of EMT6 mammary carcinoma cells; format: cell-based
[3] = target: T1, tubulin protein from bovine brain (Bos taurus, UniProt P81947+Q6B856); assay: Polymerization of pure tubulin in a cell-free system; format: biochemical; settings: 25 μM, 35° C., 20 min, 2.5 mg/ml tubulin
T1 construct: tubulin protein from bovine brain (2.5 mg/ml); purchased Cytoskeleton (Denver, Colo.); host or cells: bovine brain
Method: In a final volume of 200 μl, a solution of 2.5 mg/ml tubulin protein from bovine brain, 80 mM PIPES buffer, pH 6.8, 1 mM MgCl2, 1 mM EGTA, 1 mM GTP, and 10% glycerol was incubated at 35° C. for 20 minutes in the presence or absence (control) of 25 μM of compound 2A. The absorbance of the solution at OD340 nm was measured to determine the rate of tubulin polymerization.
Tubulin is a labile protein, which is unstable below 80 mM PIPES, should not be exposed to pH values less than 6.8 or greater than 7.0, and will not polymerize in the presence of Ca^2+. GTP and Mg^2+ are necessary for tubulin nativity and glycerol stabilizes tubulin and lowers the initial concentration required to initiate polymerization.
The ability of 2A to alter the polymerization of pure tubulin in a cell-free system in vitro was analyzed using the assay kit purchased from Cytoskeleton (Denver, Colo.). The polymerization reaction contained, in a final volume of 200 μl, tubulin protein from bovine brain (2.5 mg/ml), 80 mM PIPES buffer, pH 6.8, 1 mM MgCl2, 1 mM EGTA, 1 mM GTP and 10% glycerol. […] Samples were incubated at 35° C. in quartz microcells and the rate of tubulin polymerization was followed over 20 min by measuring the increased absorbance of the solution at OD340nm, using a Shimadzu UV-160 spectrophotometer equipped with dual-beam optics and a thermostatically-controlled cell holder. […]

[4] = test system: L1210 lymphoblastic leukemia cells; assay: Inhibition of L1210 tumor cell growth in vitro (Coulter counter); format: cell-based, Murine; settings: for reduction of L1210 cell numbers vs control: 6.25 μM; for inhibition at 50 µM: 3 and 4 days in culture, read-out: inhibition of L1210 cell growth (% reduction of control cell numbers)
Method: Cells were plated at an initial density of 1×10^4 cells/0.5 ml/well in RPMI 1640 medium, containing 7.5% fortified bovine calf serum, and grown at 37° C. for 4 days in a humidified incubator in 5% CO2 in air. Cells were incubated in the presence or absence (^•, control) of 50 μM 3A (▪), 2D & 2E (□),3D & 3E (▴), 2B & 2C (Δ) 2A (♦), 3B & 3C (⋄), or 10 μM CPT (∘) and their density was monitored in triplicate every 24 h using a Coulter counter. Cells numbers are plotted on a logarithmic scale.
(§1) All solutions of tricyclic pyrone analogs were dissolved and diluted in 100% ethanol (ETOH), whereas CPT (Sigma Chemical Co., St. Louis, Mo.) solutions were prepared in 100% dimethyl sulfoxide (DMSO). Murine L1210 lymphoblastic leukemia cells, obtained from the American Type Culture Collection (Rockville, Md.), were maintained in continuous exponential growth by twice-a-week passage in RPMI 1640 medium supplemented with 7.5% fortified bovine calf serum (HyClone Laboratories, Inc., Logan, Utah). The cultures were incubated at 37° C. in a humidified atmosphere containing 5% CO2. All drugs were supplemented to the culture medium in 1- or 2 μl aliquots. The concentration of vehicle in the final incubation volume never exceeded 0.2-0.4%. […] Control cells incubated in the absence of drugs were similarly treated with vehicle only and, in every experiment, all incubates received the same volume of solvent.
For tumor cell growth, L1210 cells were resuspended in fresh serum-containing RPMI 1640 medium, plated at an initial density of 1×10^4 cells/0.5 ml, and incubated in 48-well Costar cell culture plates (Costar, Cambridge, Mass.). Cells were grown for 4 days in the presence or absence of drugs and their density was monitored every 24 h using a Coulter counter (Coulter Electronics, Ltd., Luton Beds, England). Data of all in vitro experiments were analyzed using Student's t-test with the level of significance set at P<0.05.

[5] = test system: L1210 lymphoblastic leukemia cells; assay: Inhibition of DNA synthesis (3H-thymidine incorporation) in L1210 cells in vitro; format: cell-based, Murine; settings: for IC50: read-out: concentration that inhibits DNA synthesis by 50% (IC50)
Method: FIG. 1 illustrates a comparison of the effects of four new tricyclic pyrone derivatives and CPT on DNA synthesis in L1210 cells in vitro. About 2.53×10^6 cells suspended in 0.5 ml of RPMI 1640 medium were incubated at 37° C. for 90 minutes in the presence or absence (control) of the indicated concentrations of drugs. The cells were then pulse-labeled for an additional 30 minutes to determine the rate of ^3H-thymidine incorporation into DNA. DNA synthesis in vehicle-treated control cells was 43,956±4,569 cpm (100±11%). The blank value (1,241±99 cpm) for cells pulse-labeled for 0 minutes with 1 μCi of ^3H-thymidine has been subtracted from the results. Bars: means±SD (n=3).
as §1
For DNA synthesis, L1210 cells were resuspended in fresh serum-free RPMI 1640 medium at a density of about 2.5×10^6 cells/0.5 ml. The cells were incubated at 37° C. for 90 min in the presence or absence of drugs and then pulse-labeled for an additional 30 min with 1 μCi of [methyl-^3H]thymidine (51 Ci/mmol; Amersham Corp., Arlington Heights, Ill.). The incubations were terminated by the addition of 0.5 ml of 10% trichloroacetic acid (TCA). After holding on ice for 15 min, the acid-insoluble material was recovered over Whatman GF/A glass microfibre filters and washed thrice with 2 ml of 5% TCA and twice with 2 ml of 100% EtOH. After drying the filters, the radioactivity bound to the acid-precipitable material was determined by liquid scintillation counting in 10 ml of Bio-Safe NA (Research Products International Corp., Mount Prospect, Ill.).

[6] = test system: T2, liver and intestinal microsomal ACAT; assay: Inhibition of liver and intestinal microsomal ACAT activity; format: biochemical; settings: using literature IC50 of pyripyropene as standard
T2 construct: other: 100 μM; other: 44 nM; other: 50 μM
Method: . Microsomes were prepared from liver and intestinal mucosal scrapings by sequential centrifugation and in vitro ACAT activity assays were done according to the method of Billheimer (Billheimer, J. T. (1985), “Cholesterol acyltransferase,” In Methods in Enzymology 111:286-293). Briefly, 100 μg microsomal protein, 22 μg BSA, and 52 nmol cholesterol and the synthesized drug in 5 μL DMSO were preincubated for 30 minutes at 37° C. in a phosphate buffer (200 μL total volume). After 30 minutes, 1 nmol [^14C]oleoyl-CoA was added as substrate and incubated for an additional 20 minutes. The reaction was stopped with the addition of 1 mL ethanol and lipids were extracted with hexane. Cholesteryl [^14C]oleate formation was quantified by thin-layer chromatography and data are expressed as percent inhibition of ACAT activity (pmol/μg protein per minute) compared to a control sample incubated with no drug. All samples were run in duplicate. […]

L1210 leukemic cells = assay: Inhibition of other macromolecule synthesis (RNA and protein synthesis); format: cell-based
[7] = target: acetylcholinesterase (AChE) (UniProt O42275); format: biochemical, electric eel; fetal bovine serum; settings: read-out: AChE inhibition constant Ki ± std. error; 30° C., pH 8.0
Method: Acetylcholinesterase Assay and Inhibition Kinetics: Tricyclic pyrones of this invention were tested for inhibition of AChE. […] Reactions were carried out at 30° C. in 0.1 M sodium phosphate buffer at pH 8.0 in the presence of […] and 3.3×10^−4 M 3-carboxy-4-nitrophenyl disulfide. Aliquots of incubating mixtures containing enzyme alone, or enzyme in the presence of each carbamate, were withdrawn at selected time intervals and assayed for enzyme activity in order to obtain kinetic data. From the kinetic data, inhibition and bimolecular rate constants were calculated by the equation: [formula]
in which kapp is the pseudo-first-order rate constant.

[8] = Mus musculus, L1210, 50 μM, 90 min + 30 min pulse

T1 sequence (P81947 whole entry): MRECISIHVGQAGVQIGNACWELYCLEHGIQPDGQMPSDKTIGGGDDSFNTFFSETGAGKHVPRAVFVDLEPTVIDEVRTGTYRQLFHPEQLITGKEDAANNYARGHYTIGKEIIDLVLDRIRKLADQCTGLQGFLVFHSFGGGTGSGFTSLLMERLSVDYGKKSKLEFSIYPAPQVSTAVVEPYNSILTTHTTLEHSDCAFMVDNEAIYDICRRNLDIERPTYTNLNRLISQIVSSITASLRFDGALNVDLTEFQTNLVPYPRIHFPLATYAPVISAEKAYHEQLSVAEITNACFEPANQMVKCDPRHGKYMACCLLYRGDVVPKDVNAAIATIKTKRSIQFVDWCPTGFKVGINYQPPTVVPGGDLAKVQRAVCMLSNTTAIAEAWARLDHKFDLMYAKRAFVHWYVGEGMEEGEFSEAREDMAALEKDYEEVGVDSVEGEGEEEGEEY
T1 sequence (Q6B856 whole entry): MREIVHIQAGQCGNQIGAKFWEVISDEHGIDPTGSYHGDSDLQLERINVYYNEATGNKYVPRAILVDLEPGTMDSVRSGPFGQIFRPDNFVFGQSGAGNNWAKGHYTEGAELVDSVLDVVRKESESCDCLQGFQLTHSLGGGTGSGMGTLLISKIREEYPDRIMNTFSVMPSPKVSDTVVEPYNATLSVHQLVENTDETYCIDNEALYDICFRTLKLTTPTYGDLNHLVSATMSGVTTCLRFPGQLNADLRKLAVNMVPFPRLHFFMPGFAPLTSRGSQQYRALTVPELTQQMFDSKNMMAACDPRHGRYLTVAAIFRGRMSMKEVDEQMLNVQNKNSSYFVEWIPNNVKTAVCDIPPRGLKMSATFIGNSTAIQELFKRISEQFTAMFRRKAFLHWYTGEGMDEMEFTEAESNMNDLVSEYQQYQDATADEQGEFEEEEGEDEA
Chain of acetylcholinesterase (AChE) (O42275 whole entry): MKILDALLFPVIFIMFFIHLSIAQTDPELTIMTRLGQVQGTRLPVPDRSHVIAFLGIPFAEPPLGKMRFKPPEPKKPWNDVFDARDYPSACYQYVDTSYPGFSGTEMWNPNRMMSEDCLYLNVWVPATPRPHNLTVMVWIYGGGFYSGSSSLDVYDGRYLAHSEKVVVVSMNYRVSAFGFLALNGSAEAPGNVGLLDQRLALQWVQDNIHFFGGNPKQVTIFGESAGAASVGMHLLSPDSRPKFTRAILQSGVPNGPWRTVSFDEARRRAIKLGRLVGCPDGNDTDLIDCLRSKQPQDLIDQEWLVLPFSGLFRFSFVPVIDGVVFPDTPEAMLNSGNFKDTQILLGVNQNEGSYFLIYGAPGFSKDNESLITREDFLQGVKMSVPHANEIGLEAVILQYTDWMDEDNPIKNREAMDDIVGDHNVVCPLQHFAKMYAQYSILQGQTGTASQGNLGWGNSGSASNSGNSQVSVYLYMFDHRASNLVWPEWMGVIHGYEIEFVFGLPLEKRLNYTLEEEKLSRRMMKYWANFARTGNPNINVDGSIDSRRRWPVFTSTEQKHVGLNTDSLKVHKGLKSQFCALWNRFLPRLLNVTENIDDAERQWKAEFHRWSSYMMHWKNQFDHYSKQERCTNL

O=c1oc(-c2cccnc2)cc2c1C=C1CCCCC1O2 (stereo not shown) [Compound 2A, 3-(3-pyridyl)-1H-5a,6,7,8,9-pentahydro-1-oxopyrano[4,3-b][1]benzopyran]
inhibition of growth of MCF-7 human breast cancer cells [1]: greater inhibitory effect than tricyclic pyrone 3A
inhibition of growth of EMT6 mammary carcinoma cells [2]: greater inhibitory effect than tricyclic pyrone 3A
inhibition of tubulin polymerization (OD340nm) [3]: completely inhibit polymerization of pure tubulin; also recorded: completely inhibits tubulin polymerization; also recorded: no significant MT polymerization can be detected
inhibition of tumor cell growth ([4]; 1.56 μM, after 24 h): no effect
times less potent than CPT at inhibiting leukemic cell growth ([4]; 6.25 μM 2A mimics 0.78 μM CPT over 4 days): about 8 times
reduction of L1210 cell numbers vs control ([4]; 1 day): 28%
reduction of L1210 cell numbers vs control ([4]; 2 days): 74%
reduction of L1210 cell numbers vs control ([4]; 3 days): 90%
reduction of L1210 cell numbers vs control ([4]; 4 days): 94%
IC50 ([4]; Mus musculus, L1210, 24 h, 1 day): 11 µM
IC50 ([4]; Mus musculus, L1210, 48 h, 2 days): 2 µM
IC50 ([4]; Mus musculus, L1210, 72 h, 3 days): 1.1 µM
IC50 ([4]; Mus musculus, L1210, 96 h, 4 days): 1.1 µM
inhibition at 1.56 µM ([4]; Mus musculus, L1210, 1.56 μM, after 96 h): 83%
inhibition at 50 µM ([4]; Mus musculus, L1210): 91 to 100%
inhibition at 50 µM [5, 8]: 79 to 91%
IC50 ([5]; Mus musculus, L1210 cells, 2 h): ~8.5 µM
IC50 [6]: 50 µM

O=c1cc(O)cc(-c2cccnc2)o1 [Compound 5B, 4-hydroxy-6-(3-pyridyl)-2-pyrone]
melting point: 187 to 189 °C
inhibition of DNA synthesis in L1210 cells ([5]; 25 μM, 90 min + 30 min pulse): no significant effects
inhibition of DNA synthesis in L1210 cells ([5]; 50 μM, 90 min + 30 min pulse, 50 µM): no effect; also recorded: ineffective; also recorded: fail to inhibit DNA synthesis

COc1ccc(-c2cc3c(c(=O)o2)C=C2CCCCC2O3)cc1OC (stereo not shown) [Compound 3A, 3-(3,4-dimethoxyphenyl)-1H-5a,6,7,8,9-pentahydro-1-oxopyrano[4,3-b][1]benzopyran]
inhibition of macromolecule synthesis (RNA and protein synthesis) (L1210 leukemic cells): more potent inhibitor of macromolecule synthesis than the 3-pyridyl substituted tricyclic pyrone 2A
Ki [7]: 23 ± 3.5 µM
inhibition at 50 µM ([4]; Mus musculus, L1210): 91 to 100%
IC50 ([5]; Mus musculus, L1210, 2 h): ~8.5 µM
inhibition at 25 µM ([5]; Mus musculus, L1210, 25 μM, 90 min + 30 min pulse): 62%
inhibition at 50 µM [5, 8]: 79 to 91%
IC50 [6]: 63 µM
